This is an account of results in US11161856B2 (H. Lundbeck A/S, priority 2017, dated 2021).

In one experiment the target is T1, MGLL (Mus musculus, UniProt O35678).
T1 construct: Brain; from tissue; host or cells: mouse brain proteome
T1 sequence (O35678 1-303): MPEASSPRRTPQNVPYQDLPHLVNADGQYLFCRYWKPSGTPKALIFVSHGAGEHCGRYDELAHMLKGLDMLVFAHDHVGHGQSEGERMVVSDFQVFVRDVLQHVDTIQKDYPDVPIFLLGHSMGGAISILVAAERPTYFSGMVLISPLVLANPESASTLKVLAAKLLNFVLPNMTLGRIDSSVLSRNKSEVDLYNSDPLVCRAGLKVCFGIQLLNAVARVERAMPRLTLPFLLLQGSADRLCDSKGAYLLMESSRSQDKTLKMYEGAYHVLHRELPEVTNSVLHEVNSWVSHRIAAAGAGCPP
The experiment in a line: In vitro competitive activity-based protein profiling, mouse brain proteome (MGLL). The conditions noted are these: for % Inh MGLL Brain (Mouse, μM): concentration not given (μM). Also noted: IC50 MGLL Brain (Mouse, μM): scale not given here. The experiment is classed as biochemical.

A further experiment addresses T2, ABHD6 (Mus musculus, UniProt Q8R2Y0).
T2 construct: Brain; from tissue; host or cells: mouse brain proteome
T2 sequence (Q8R2Y0 1-336): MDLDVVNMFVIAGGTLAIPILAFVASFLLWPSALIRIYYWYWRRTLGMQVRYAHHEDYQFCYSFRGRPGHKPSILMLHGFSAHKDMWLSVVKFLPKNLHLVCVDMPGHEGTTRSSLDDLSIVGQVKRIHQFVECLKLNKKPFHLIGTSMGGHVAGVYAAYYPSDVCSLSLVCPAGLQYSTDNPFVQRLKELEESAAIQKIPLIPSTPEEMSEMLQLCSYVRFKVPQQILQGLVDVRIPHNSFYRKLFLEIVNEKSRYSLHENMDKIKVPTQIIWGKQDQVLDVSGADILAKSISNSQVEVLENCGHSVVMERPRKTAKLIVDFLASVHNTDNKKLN
The experiment in a line: In vitro competitive activity-based protein profiling, mouse brain proteome (ABHD6). The class given is biochemical. The conditions noted are these: mouse brain proteome; concentration not given (μM). The protocol:
[The source words this procedure for another target and reports this target under the same test.] In Vitro Competitive Activity-Based Protein Profiling.
Proteomes (human prefrontal cortex or cell membrane fractions) (50 μL, 1.0 mg/mL total protein concentration) were preincubated with varying concentrations of inhibitors at 37° C. After 30 min, FP-Rh or HT-01 (1.0 μL, 50 μM in DMSO) was added and the mixture was incubated for another 30 min at room temperature. Reactions were quenched with SDS loading buffer (15 μL-4×) and run on SDS-PAGE.

Structures are written as SMILES.

Turning to `O=C(OC(C(F)(F)F)C(F)(F)F)N1CCC2(CC1)CN(Cc1c(Cl)cccc1N1CC3COCC3C1)C2` (centres unmarked) [Example 57, 1,1,1,3,3,3-Hexafluoropropan-2-yl 2-(2-chloro-6-(tetrahydro-1H-furo[3,4-c]pyrrol-5(3H)-yl)benzyl)-2,7-diazaspiro[3.5]nonane-7-carboxylate], the “% Inh MGLL Brain (Mouse, μM)” value on MGLL was “### (### is ≥75%)”. At ABHD6, the “% Inh ABHD6 Brain (Mouse, μM)” value is recorded as “### (### is ≥75%)”.

As for `O=C(OC(C(F)(F)F)C(F)(F)F)N1CC2(CCN(Cc3cccc(Oc4ccccc4)c3)CC2)C1` [Example 64, 1,1,1,3,3,3-Hexafluoropropan-2-yl 7-(3-phenoxybenzyl)-2,7-diazaspiro[3,5]nonane-2-carboxylate], the “% Inh MGLL Brain (Mouse, μM)” value on MGLL was “## (## is between 25 and 75%)”. Further, the “% Inh ABHD6 Brain (Mouse, μM)” value at ABHD6 is on record as “### (### is ≥75%)”.

For `O=C(OC(C(F)(F)F)C(F)(F)F)N1CCC2(CC1)CN(Cc1c(Cl)cccc1N1CCN(C3CC3)CC1)C2` [Example 58, 1,1,1,3,3,3-Hexafluoropropan-2-yl 2-(2-chloro-6-(4-cyclopropvlpiperazin-1-yl)benzyl)-2,7-diazaspiro[3.5]nonane-7-carboxylate], at MGLL, the “% Inh MGLL Brain (Mouse, μM)” value is recorded as “### (### is ≥75%)”. At ABHD6, the “% Inh ABHD6 Brain (Mouse, μM)” value is recorded as “### (### is ≥75%)”.

Turning to `CC(=O)N1CCC2(CC1)CN(c1cc(C(F)(F)F)ccc1CN1CCN(C(=O)OC(C(F)(F)F)C(F)(F)F)CC1)C2` [Example 199, 1.1,1.3.3,3-Hexafluoropropan-2-yl 4-(2-(7-acetyl-2,7-diazaspiro[3.5]nonan-2-yl)-4-(trifluoromethyl)benzyl)pipera zine-l-carboxylate], the “% Inh MGLL Brain (Mouse, μM)” value on MGLL is reported as “### (### is ≥75%)”. In addition, the “% Inh ABHD6 Brain (Mouse, μM)” value on ABHD6 is “# (# is ≤25%)”.

For `CCN1CCCc2cccc(CN3CC4(CCN(C(=O)OC(C(F)(F)F)C(F)(F)F)CC4)C3)c21` [Example 16, 1,1,1,3,3,3-Hexafluoropropan-2-yl 2-((1-ethyl-1,2,3,4-tetrahydroquinolin-8-yl)methyl)-2,7-diazaspiro[3.5]nonane-7-carboxylate], on MGLL, the “IC50 MGLL Brain (Mouse, μM)” value was “* * *” and the “% Inh MGLL Brain (Mouse, μM)” value was “### (### is ≥75%)”. In addition, the “% Inh ABHD6 Brain (Mouse, μM)” value on ABHD6 is “### (### is ≥75%)”.

`CC(=O)N1CC2(CCN(c3cc(Cl)cc(CN4CCCC45CN(C(=O)OC(C(F)(F)F)C(F)(F)F)C5)c3)CC2)C1` [Example 238, 1,1,1,3,3,3-Hexafluoropropan-2-yl 5-(3-(2-acetyl-2,7-diazaspiro[3.5]nonan-7-yl)-5-chlorobenzyl)-2,5- .diazaspiro[3.4]octane-2-carboxylate]: on MGLL, the “% Inh MGLL Brain (Mouse, μM)” value is given as “### (### is ≥75%)”. For the same compound, the “% Inh ABHD6 Brain (Mouse, μM)” value at ABHD6 is “### (### is ≥75%)”.

Take `CN1CCCC12CCN(c1cc(Cl)ccc1CN1CCN(C(=O)OC(C(F)(F)F)C(F)(F)F)CC1)CC2` [Example 214, 1,1,1,3,3,3-Hexafluoropropan-2-yl 4-(4-chloro-2-(1-methyl-1,8-diazaspiro[4.5]decan-8-yl)benzyl)piperazine-1-carboxylate]: the “% Inh MGLL Brain (Mouse, μM)” value at MGLL is reported as “### (### is ≥75%)”. In addition, the “% Inh ABHD6 Brain (Mouse, μM)” value on ABHD6 is on record as “# (# is ≤25%)”.

With `O=C(OC(C(F)(F)F)C(F)(F)F)N1CCC2(CCN(Cc3ccc(C(F)(F)F)cc3N3CCCCC3)CC2)C1` [Example 187, 1,1,1,3,3,3-Hexafluoropropan-2-yl 8-(2-(piperidin-1-yl)-4-(trifluoromethyl)benzyl)-2,8-diazaspiro[4.5]decane-2-carboxylate], on MGLL, the “% Inh MGLL Brain (Mouse, μM)” value is given as “### (### is ≥75%)”. The “% Inh ABHD6 Brain (Mouse, μM)” value at ABHD6 is reported as “# (# is ≤25%)”.

Regarding `CC(=O)N1CCC2(CCN(c3cc(Cl)ccc3CN3CCN(C(=O)OC(C(F)(F)F)C(F)(F)F)CC3)CC2)C1` [Example 178, 1,1,1,3,3,3-Hexafluoropropan-2-yl 4-(2-(2-acetyl-2,8-diazaspiro[4.5]decan-8-yl)-4-chlorobenzyl)piperazine-1-carboxylate], on MGLL, the “% Inh MGLL Brain (Mouse, μM)” value is “### (### is ≥75%)”. The “% Inh ABHD6 Brain (Mouse, μM)” value at ABHD6 is on record as “# (# is ≤25%)”.

Take `CS(=O)(=O)N1CCC2(CCN(c3cccc(C(F)(F)F)c3CN3CC4(CCN(C(=O)OC(C(F)(F)F)C(F)(F)F)CC4)C3)CC2)C1` [Example 62, 1,1,1,3,3,3-Hexafluoropropan-2-yl 2-(2-(2-(methylsulfonyl)-2,8-diazaspiro[4.5]decan-8-yl)-6-(trifluoromethyl)benzyl)-2,7-diazaspiro[3.5]nonane-7-carboxylate]: the “% Inh MGLL Brain (Mouse, μM)” value on MGLL is reported as “### (### is ≥75%)”. Moreover, the “% Inh ABHD6 Brain (Mouse, μM)” value at ABHD6 is “### (### is ≥75%)”.

Turning to `CS(=O)(=O)N1CCCC12CCN(c1cc(C(F)(F)F)ccc1CN1CCN(C(=O)OC(C(F)(F)F)C(F)(F)F)CC1)CC2` [Example 209, 1,1,1,3,3,3-Hexafluoropiopan-2-yl 4-(2-(1-(methylsulfonyl)-1.8-diazaspiro[4.5]decan-8-yl)-4-(trifluoromethyl)benzyl) piperazine-1-carboxylate], on MGLL, the “% Inh MGLL Brain (Mouse, μM)” value is recorded as “### (### is ≥75%)”. At ABHD6, the “% Inh ABHD6 Brain (Mouse, μM)” value was “# (# is ≤25%)”.

As to `CS(=O)(=O)N1CCC2(CCN(c3cc(CN4CCCC45CN(C(=O)OC(C(F)(F)F)C(F)(F)F)C5)cc(C(F)(F)F)c3)CC2)C1` [Example 233, 1,1,1,3,3,3-Hexafluoropropan-2-yl 5-(3-(2-(methylsulfonyl)-2,8-diazaspiro[4.5]decan-8-yl)-5-(trifluoromethyl)benzyl)-2,5-diazaspiro[3.4]octane-2-carboxylate], at MGLL, the “% Inh MGLL Brain (Mouse, μM)” value is on record as “### (### is ≥75%)”. Besides, the “% Inh ABHD6 Brain (Mouse, μM)” value on ABHD6 is “## (## is between 25 and 75%)”.

As for `CS(=O)(=O)N1CCC2(CCN(c3cc(C(F)(F)F)ccc3CN3CCN(C(=O)OC(C(F)(F)F)C(F)(F)F)CC3)CC2)C1` [Example 185, 1,1,1,3,3,3-Hexafluoropropan-2-yl 4-(2-(2-(methylsulfonyl)-2,8-diazaspiro[4.5]decan-8-yl)-4-(trifluoromethyl)benzyl) piperazine-1-carboxylate], the “% Inh MGLL Brain (Mouse, μM)” value at MGLL is recorded as “### (### is ≥75%)”. At ABHD6, the “% Inh ABHD6 Brain (Mouse, μM)” value was “# (# is ≤25%)”.

Consider `O=C(OC(C(F)(F)F)C(F)(F)F)N1CCC2(CCN(Cc3ccc(Cl)cc3N3CCCCC3)CC2)C1` [Example 191, 1,1,1,3,3,3-Hexafluoropropan-2-yl 8-(4-chloro-2-(piperidin-1-yl)benzyl)-2,8-diazaspiro[4.5]decane-2-carboxylate], for which the “% Inh MGLL Brain (Mouse, μM)” value at MGLL is reported as “### (### is ≥75%)”. For the same compound, the “% Inh ABHD6 Brain (Mouse, μM)” value at ABHD6 is recorded as “# (# is ≤25%)”.

As to `O=C(OC(C(F)(F)F)C(F)(F)F)N1CCC2(CCN(Cc3ccc(Cl)cc3N3CCOCC3)CC2)C1` [Example 181, 1,1,1,3,3,3-Hexafluoropropan-2-yl 8-(4-chloro-2-morpholinobenzyl)-2,8-diazaspiro[4.5]decane-2-carboxylate], the “% Inh MGLL Brain (Mouse, μM)” value at MGLL was “### (### is ≥75%)”. The “% Inh ABHD6 Brain (Mouse, μM)” value on ABHD6 is “# (# is ≤25%)”.

Regarding `Cc1ccccc1CN1CC2(CCN(C(=O)OC(C(F)(F)F)C(F)(F)F)CC2)C1` [Example 91, 1,1,1,3,3,3-Hexafluoropropan-2-yl 2-(2-methylbenzyl)-2,7-diazaspiro[3.5]nonane-7-carboxylate], the “% Inh MGLL Brain (Mouse, μM)” value on MGLL is “### (### is ≥75%)”. The “% Inh ABHD6 Brain (Mouse, μM)” value on ABHD6 is given as “### (### is ≥75%)”.

Take `O=C(OC(C(F)(F)F)C(F)(F)F)N1CCC2(CC1)CN(Cc1cccc(N3CCCC3)c1)C2` [Example 94, 1,1,1,3,3,3-Hexafluoropropan-2-yl 2-(3-(pyrrolidin-1-yl)benzyl)-2,7-diazaspiro[3.5]nonane-7-carboxylate]: the “% Inh MGLL Brain (Mouse, μM)” value at MGLL is “### (### is ≥75%)”. Besides, the “% Inh ABHD6 Brain (Mouse, μM)” value on ABHD6 is “### (### is ≥75%)”.

As for `O=C(OC(C(F)(F)F)C(F)(F)F)N1CC2(CCN(Cc3ccc(N4CCCC4)cc3)CC2)C1` [Example 17, 1,1,1,3,3,3-hexafluoropropan-2-yl 7-(4-(pyrrolidin-1-yl)benzyl)-2,7-diazaspiro[3.5]nonane-2-carboxylate], the “% Inh MGLL Brain (Mouse, μM)” value at MGLL was “### (### is ≥75%)”. Moreover, at ABHD6, the “% Inh ABHD6 Brain (Mouse, μM)” value was “### (### is ≥75%)”.

Take `O=C(OC(C(F)(F)F)C(F)(F)F)N1CCC2(CC1)CN(Cc1ccc(Cl)cc1N1CCOCC1)C2` [Example 39, 1,1,1,3,3,3-Hexafluoropropan-2-yl 2-(4-chloro-2-morpholinobenzyl)-2,7-diazaspiro[3.5]nonane-7-carboxylate]: at MGLL, the “% Inh MGLL Brain (Mouse, μM)” value is “### (### is ≥75%)”. Further, on ABHD6, the “% Inh ABHD6 Brain (Mouse, μM)” value is reported as “### (### is ≥75%)”.

For `CC(=O)N1CCC2(CCN(c3cc(Cl)cc(CN4CCCC45CN(C(=O)OC(C(F)(F)F)C(F)(F)F)C5)c3)CC2)C1` [Example 234, 1,1,1,3,3,3-Hexafluoropropan-2-yl 5-(3-(2-acetyl-2,8-diazaspiro[4.5]decan-8-yl)-5-chlorobenzyl)-2,5-diazaspiro[3.4]octane-2-carboxylate], the “% Inh MGLL Brain (Mouse, μM)” value on MGLL is listed as “# (# is ≤25%)”. On ABHD6, the “% Inh ABHD6 Brain (Mouse, μM)” value is “### (### is ≥75%)”.
